# Measurements from publication PMC8352719 (The Journal of General Physiology, 2021).
# Several values for one entry are separate records, joined by “and”; a condition that tells them apart may be missing. Equal entries are not always repeated. Entries after “also recorded” stand apart in the source; their conditions may differ. Where two headings read alike, the source gives them in different places.
# Columns and labels:
# [1] = molecular target: BKα/γ1 channels (human BK channel α- and γ1-subunits (LRRC26), HEK-293T) (Homo sapiens, UniProt Q12791); assay: Macroscopic BK currents in excised inside-out patches; assay type: biochemical
# BKα/γ1 channels = BKα/γ1 channels (Homo sapiens, UniProt Q12791); assay: Whole-cell recordings from HEK-293T cells overexpressing BKα/γ1 channels; assay type: cell-based
# BKα channels = BKα channels (Homo sapiens, UniProt Q12791); assay: Kinetic model analysis
# [2] = LOP levels with a therapeutic dose in humans; assay type: in vivo; conditions: therapeutic dose of 2–4 mg, assuming solvation in 1 liter of luminal fluid
# [3] = molecular target: T1, BKα channels (human BK channel α-subunit, HEK-293T) (Homo sapiens, UniProt Q12791); conditions: for τ of decay phase on LOP application: perfusion limited; for V1/2: 10 μM LOP; for effective off-rate: IC50 × on-rate; for τrecovery: two-pulse protocol
# [4] = molecular target: T1, BKα channels (human BK channel α-subunit, HEK-293T); conditions: 30 µM LOP
# BK channel = conditions: ref Vouga et al., 2019; cited from earlier work
# [5] = humans; therapeutic dose of 2–4 mg; conversion of 2 ng/ml; cited from earlier work
# [6] = molecular target: T1, BKα channels (human BK channel α-subunit, HEK-293T); assay: biochemical
# [7] = IC50 (Hill fit of mean Gmax versus [LOP]), nominally 0 Ca2+
# [8] = IC50 (Hill fit of mean V1/2 versus [LOP]), nominally 0 Ca2+
# [9] = nominally 0 Ca2+, 30 μM LOP, mean of individual Boltzmann fits
# [10] = nominally 0 Ca2+, −100 to −60 mV
# BKα channels, sequence (Q12791 whole entry): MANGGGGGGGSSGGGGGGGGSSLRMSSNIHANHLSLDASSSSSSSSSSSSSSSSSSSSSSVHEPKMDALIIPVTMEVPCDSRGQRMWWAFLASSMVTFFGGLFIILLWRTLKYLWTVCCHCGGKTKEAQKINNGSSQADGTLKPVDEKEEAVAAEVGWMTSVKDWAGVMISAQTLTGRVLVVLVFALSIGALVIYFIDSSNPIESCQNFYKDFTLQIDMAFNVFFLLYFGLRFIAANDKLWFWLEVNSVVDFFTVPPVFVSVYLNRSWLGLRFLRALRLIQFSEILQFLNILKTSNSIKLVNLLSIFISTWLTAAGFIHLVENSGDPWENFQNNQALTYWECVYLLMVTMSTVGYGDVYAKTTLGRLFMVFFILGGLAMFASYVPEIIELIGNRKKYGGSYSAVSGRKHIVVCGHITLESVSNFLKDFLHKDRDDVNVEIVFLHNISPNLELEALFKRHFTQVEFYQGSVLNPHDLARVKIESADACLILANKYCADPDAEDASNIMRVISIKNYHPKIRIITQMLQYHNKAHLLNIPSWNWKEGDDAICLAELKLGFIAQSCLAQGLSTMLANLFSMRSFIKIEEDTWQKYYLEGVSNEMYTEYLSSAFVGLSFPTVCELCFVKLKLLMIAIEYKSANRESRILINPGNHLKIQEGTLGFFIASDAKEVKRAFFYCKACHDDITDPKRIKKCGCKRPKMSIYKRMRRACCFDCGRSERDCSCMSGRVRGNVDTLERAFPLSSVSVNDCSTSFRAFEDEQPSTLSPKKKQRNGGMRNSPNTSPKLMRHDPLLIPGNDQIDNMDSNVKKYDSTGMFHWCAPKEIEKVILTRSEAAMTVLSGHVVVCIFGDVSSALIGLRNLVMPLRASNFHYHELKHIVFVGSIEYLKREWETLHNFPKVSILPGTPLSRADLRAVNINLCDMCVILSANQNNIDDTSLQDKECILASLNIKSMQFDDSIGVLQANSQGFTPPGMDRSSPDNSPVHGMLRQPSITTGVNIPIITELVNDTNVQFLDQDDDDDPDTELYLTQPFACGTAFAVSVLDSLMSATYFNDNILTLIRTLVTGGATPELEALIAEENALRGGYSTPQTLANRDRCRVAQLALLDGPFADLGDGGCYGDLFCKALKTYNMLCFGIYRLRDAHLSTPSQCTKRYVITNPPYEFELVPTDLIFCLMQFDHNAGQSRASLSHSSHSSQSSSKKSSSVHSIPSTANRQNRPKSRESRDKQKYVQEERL
# T1 sequence (Q12791 whole entry, the tested form may be a part): as the sequence (Q12791 whole entry) above
# BKα/γ1 channels, sequence (Q12791 whole entry): as above
# BKα/γ1 channels, sequence (Q2I0M4 27-334 partner): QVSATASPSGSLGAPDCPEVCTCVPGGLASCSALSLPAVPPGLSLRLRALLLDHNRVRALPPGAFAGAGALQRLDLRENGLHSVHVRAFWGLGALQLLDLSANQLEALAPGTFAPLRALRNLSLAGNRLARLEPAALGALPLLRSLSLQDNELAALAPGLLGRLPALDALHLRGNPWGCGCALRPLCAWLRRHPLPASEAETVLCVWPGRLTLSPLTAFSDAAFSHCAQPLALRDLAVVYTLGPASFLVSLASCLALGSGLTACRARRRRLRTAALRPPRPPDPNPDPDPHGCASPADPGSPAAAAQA
# BKα/γ1 channels (human BK channel α- and γ1-subunits (LRRC26), HEK-293T), sequence (Q12791 whole entry): as the sequence (Q12791 whole entry) above
# BKα/γ1 channels (human BK channel α- and γ1-subunits (LRRC26), HEK-293T), sequence (Q2I0M4 27-334 partner): as the sequence (Q2I0M4 27-334 partner) above
smiles,measurement,setting,value
"CN(C)C(=O)C(CCN1CCC(O)(c2ccc(Cl)cc2)CC1)(c1ccccc1)c1ccccc1 [LOP, 4-[4-(4-chlorophenyl)-4-hydroxypiperidin-1-yl]-N,N-dimethyl-2,2-diphenylbutanamide]",IC50,[1]; [7],2.13 ± 0.3 µM
same,IC50,[1]; [8],1.5 ± 1.7 µM
same,IC50,"[1]; IC50, nominally 0 Ca2+, Vm 0 mV, Hill fit of normalized G vs [LOP]",11.3 ± 3.5 µM
same,"A (Eq. 4, IC50 versus voltage)",[1]; nominally 0 Ca2+,7.6
same,mean zδ value of G-V relations versus [LOP],[1]; nominally 0 Ca2+,1.2 e0
same,min V1/2 (Hill fit of mean V1/2 versus [LOP]),[1]; nominally 0 Ca2+,−15 ± 11 mV
same,nH (Hill fit of mean Gmax versus [LOP]),[1]; nominally 0 Ca2+,0.74 ± 0.06
same,nH (Hill fit of mean V1/2 versus [LOP]),[1]; nominally 0 Ca2+,0.72 ± 0.4
same,Gmax,[1]; [9],0.12 ± 0.04
same,V1/2,[1]; [9],−11 ± 5 mV
same,current recovery after washout of LOP (of predrug amplitude),"BKα/γ1 channels; 10 µM LOP, extracellular bath",~80%
same,mean fractional whole-cell current at equilibrium,"BKα/γ1 channels; bath application of 10 µM LOP, pulses to 100 mV",0.39 ± 0.06
same,slowing versus cytosolic application to excised inside-out patches,BKα/γ1 channels; extracellular bath-applied LOP,~20 times
same,mean time constant for inhibition to reach equilibrium,BKα/γ1 channels; extracellular bath-applied LOP (10 µM),2.8 ± 0.4 min
same,τ of exponential fit (a),"BKα/γ1 channels; representative experiment Fig. 5 A, first application of 10 µM LOP at t = 5 min",1.9 min
same,τ of exponential fit (e),"BKα/γ1 channels; representative experiment Fig. 5 A, washout at t = 25 min",51 s
same,KLOP in the open state,BKα channels,1.6 µM
same,KLOP (dissociation constant for LOP binding),"BKα channels; Sch 2, closed state, global fit, nominally 0 and 88 μM Ca2+",53.4 µM
same,"H (allosteric constant, LOP binding vs closed-open equilibrium)","BKα channels; Sch 2, fold difference in LOP affinity between closed and open states",34.4
same,W (coupling between LOP binding and CSD activation),BKα channels; Sch 5,1.09
same,estimated concentration of LOP in the intestinal lumen,[2],≥ 8 µM
same,mean fractional current,"[3]; 3 µM LOP cytosolic with 3 µM extracellular LOP (pipette), 88 µM Ca2+",0.361 ± 0.013
same,mean fractional current,"[3]; 3 µM LOP cytosolic without extracellular LOP, 88 µM Ca2+",0.292 ± 0.033
same,effect of extracellular LOP alone on BK current,"[3]; 3 µM LOP in pipette solution, 88 µM Ca2+, several minutes",little apparent effect; also recorded: no apparent inhibition
same,decrease of normalized current,"[3]; 3 µM LOP in the pipette, 0 LOP cytosolic, after 30 min of continuous recording",5–10%
same,τ of decay phase on LOP application,"[3]; 30 µM LOP cytosolic, 0 µM Ca2+, representative experiment",8.5 s
same,τ of decay phase on LOP application,"[3]; 30 µM LOP cytosolic, 88 µM Ca2+, representative experiment",7.1 s
same,current recovery after washout of LOP (of predrug amplitude),"[3]; 30 µM LOP cytosolic, Fig. 2 A",~100%
same,time constant of LOP reaching 90% of its maximal effect,"[3]; 30 µM LOP to cytosolic side, 88 µM Ca2+, reflects solution switching",7 ± 1 s
same,"A (Eq. 4, IC50 versus voltage)",[3]; 88 µM Ca2+,0.39
same,min V1/2 (Hill fit of mean V1/2 versus [LOP]),[3]; 88 µM Ca2+,−57 ± 8 mV
same,nH (Hill fit of mean Gmax versus [LOP]),[3]; 88 µM Ca2+,0.79 ± 0.06
same,nH (Hill fit of mean V1/2 versus [LOP]),[3]; 88 µM Ca2+,0.94 ± 0.6
same,y0 (final normalized current in pulse train),"[3]; 88 μM Ca2+, 3 µM LOP, 90 mV / -60 mV duration 2 / 2 ms",0.50 ± 0.019
same,y0 (final normalized current in pulse train),"[3]; 88 μM Ca2+, 3 µM LOP, 90 mV / -60 mV duration 2 / 8 ms",0.74 ± 0.032
same,V1/2,"[3]; 88 μM Ca2+, mean of individual Boltzmann fits",−54 ± 7 mV
same,Gmax,"[3]; 88 μM Ca2+, 30 μM LOP, mean of individual Boltzmann fits",0.0763 ± 0.008
same,effective on-rate (slope of 1/τdecay versus [LOP]),"[3]; 88 µM Ca2+, 50 mV",4.3 ± 0.4 × 10^7 M^−1 s^−1 and 4.3 × 10^7 ± 0.4 × 10^7 M^−1 s^−1
same,effective off-rate,"[3]; 88 µM Ca2+, 50 mV",~40 s⁻¹
same,effective on-rate (slope of 1/τdecay versus [LOP]),"[3]; 88 µM Ca2+, 90 mV",5.8 ± 0.6 × 10^7 M^−1 s^−1 and 5.8 × 10^7 ± 0.6 × 10^7 M^−1 s^−1
same,effective off-rate,"[3]; 88 µM Ca2+, 90 mV",41 s⁻¹ and 40 s⁻¹
same,nominal effective valence of on-rates (Eq. 5),"[3]; 88 µM Ca2+, on-rates at 50 and 90 mV",0.21 ± 0.11 e0
same,τrecovery,"[3]; 88 µM Ca2+, −80 mV, 3 µM LOP",3.87 ms
same,τrecovery,"[3]; 88 µM Ca2+, −80 mV, 10 µM LOP",4.14 ms
same,mean tail current τ,"[3]; 88 µM Ca2+, −80 mV, 3 µM LOP",1.82 ± 0.14 ms
same,mean tail current τ,"[3]; 88 µM Ca2+, −80 mV, 10 µM LOP",2.05 ± 0.6 ms
same,τrecovery,"[3]; 88 µM Ca2+, −120 mV, 3 µM LOP",2.04 ms
same,τrecovery,"[3]; 88 µM Ca2+, −120 mV, 10 µM LOP",2.11 ms
same,mean tail current τ,"[3]; 88 µM Ca2+, −120 mV, 3 µM LOP",0.71 ± 0.06 ms
same,mean tail current τ,"[3]; 88 µM Ca2+, −120 mV, 10 µM LOP",0.78 ± 0.07 ms
same,current recovery following washout of cytosolic LOP,"[3]; 3 or 30 µM cytosolic LOP with 3 µM extracellular LOP, 88 µM Ca2+, Fig. 2 B",> 90%
same,"A (Eq. 4, IC50 versus voltage)",[3]; nominally 0 Ca2+,"5,500"
same,mean zδ value of G-V relations versus [LOP],[3]; nominally 0 Ca2+,1.1 e0
same,min Gmax (Hill fit of mean Gmax versus [LOP]),[3]; nominally 0 Ca2+,0.16 ± 0.04
same,min V1/2 (Hill fit of mean V1/2 versus [LOP]),[3]; nominally 0 Ca2+,162 ± 16 mV
same,nH (Hill fit of mean Gmax versus [LOP]),[3]; nominally 0 Ca2+,1.2 ± 0.13
same,nH (Hill fit of mean V1/2 versus [LOP]),[3]; nominally 0 Ca2+,0.65 ± 1.1
same,V1/2,"[3]; nominally 0 Ca2+, mean of individual Boltzmann fits",165 ± 5 mV
same,time to complete reversal of inhibition upon washout,"[3]; switch from 30 to 0 µM LOP, cytosolic side",≤ 1 min
same,τ of wash phase,"[3]; washout of 30 µM LOP, 0 µM Ca2+, representative experiment",35 s
same,apparent closing rate (1/τclosing),"[3]; −80 mV, 3 µM LOP",684 ± 57 s⁻¹
same,tail current τ (fit to mean trace),"[3]; −80 mV, 3 µM LOP",1.99 ms
same,tail current τ (representative trace),"[3]; −80 mV, 3 µM LOP",2.25 ms
same,tail current τ (fit to mean trace),"[3]; −80 mV, 10 µM LOP",1.77 ms
same,tail current τ (representative trace),"[3]; −80 mV, 10 µM LOP",1.73 ms
same,apparent closing rate (1/τclosing),"[3]; −120 mV, 3 µM LOP","1,460 ± 69 s^−1"
same,tail current τ (fit to mean trace),"[3]; −120 mV, 3 µM LOP",0.82 ms
same,tail current τ (representative trace),"[3]; −120 mV, 3 µM LOP",0.876 ms
same,tail current τ (fit to mean trace),"[3]; −120 mV, 10 µM LOP",0.85 ms
same,tail current τ (representative trace),"[3]; −120 mV, 10 µM LOP",0.694 ms
same,mean open times,"[4]; voltages up to 100 mV, nominally 0 or 88 µM Ca2+",≤ 0.44 ms
same,V1/2 of mean open time (Boltzmann fit),[4]; 88 µM Ca2+,−83 mV
same,min. open time (Boltzmann fit),[4]; 88 µM Ca2+,0.26 ms
same,zδ of mean open time (Boltzmann fit),[4]; 88 µM Ca2+,1.6 e0
same,effective inhibition rate,"[4]; 88 µM Ca2+, 1/0.43 ms","2,326 s^−1"
same,mean open time,"[4]; 88 µM Ca2+, +50 mV",0.37 ± 0.044 ms
same,maximum open time (Boltzmann fit),"[4]; 88 µM Ca2+, depolarized voltages",0.43 ± 0.03 ms and 0.43 ms
same,mean open time,"[4]; 88 µM Ca2+, −50 mV",0.44 ± 0.026 ms
same,Po,"[4]; 88 µM Ca2+, −90 mV",0.00728 ± 0.0010
same,inhibition of Po,"[4]; 88 µM Ca2+, −90 mV",2.7 fold
same,mean open time,"[4]; 88 µM Ca2+, −90 mV",0.32 ± 0.03 ms
same,Po,"[4]; 88 µM Ca2+, −160 to −130 mV",0.0037 ± 0.0003
same,mean open time,"[4]; 88 µM Ca2+, −160 to −130 mV",0.26 ± 0.004 ms
same,effective inhibition rate,"[4]; nominally 0 Ca2+, 1/0.39 ms","2,564 s^−1"
same,Po,"[4]; nominally 0 Ca2+, +60 mV",1.3 ± 0.6 × 10^−4
same,inhibition of Po,"[4]; nominally 0 Ca2+, +60 mV",3.7 fold
same,mean open time,"[4]; nominally 0 Ca2+, +60 mV",0.32 ± 0.03 ms
same,Po,"[4]; nominally 0 Ca2+, +80 mV",5.4 ± 1.3 × 10^−4
same,inhibition of Po,"[4]; nominally 0 Ca2+, +80 mV",3.5 fold
same,mean open time,"[4]; nominally 0 Ca2+, +80 mV",0.38 ± 0.008 ms
same,extrapolated maximum open time (Boltzmann fit),"[4]; nominally 0 Ca2+, depolarized voltages",0.39 ± 0.04 ms
same,mean Po,[4]; [10],1.7 ± 0.2 × 10^−6
same,mean open time,[4]; [10],0.18 ± 0.009 ms
same,inhibition of BK channel–mediated thallium flux,BK channel,potent inhibitor
same,plasma levels of LOP,[5],~4 nM
same,IC50,"[6]; IC50 (Hill fit of mean Gmax versus [LOP]), 88 µM Ca2+",1.06 µM and 1.1 µM
same,IC50,[6]; [7],1.4 µM and 1.41 µM
same,IC50,"[6]; IC50 (Hill fit of mean V1/2 versus [LOP]), 88 µM Ca2+",0.31 ± 0.3 µM
same,IC50,[6]; [8],0.55 µM
same,IC50,"[6]; IC50(∞), asymptotic IC50 at very depolarized voltages (Eq. 4), 88 µM Ca2+",0.87 µM
same,IC50,"[6]; IC50(∞), asymptotic IC50 at very depolarized voltages (Eq. 4), nominally 0 Ca2+",2.2 µM
same,IC50,"[6]; IC50, 88 μM Ca2+, Vm 50 mV, Hill fit of normalized G vs [LOP]",~0.94 µM
same,IC50,"[6]; extrapolated IC50, 88 µM Ca2+, 90 mV",0.71 µM
same,IC50,"[6]; half-maximal inhibitory concentration (IC50) for open channels, voltage-activated BK current, wide range of cytosolic [Ca2+]",~1 µM
